Source: PubChem BioAssay AID330 (DTP/NCI, 2004)
Values joined by “and” are separate entries in the source; they are usually repeats but may differ in a detail not shown here. Equal entries are not always repeated. Toxic doses and inconclusive results are not listed. Square brackets hold non-standard residues; d marks the D form. Peptide text beside a SMILES is read from it. ξ: configuration not given here. ξPhe(4-N(CH2CH2Cl)2) = NC(Cc1ccc(N(CCCl)CCCl)cc1)C(=O)O; Aad = N[CH](CCCC(=O)O)C(=O)O

Test system: P388 leukemia ip, CD2F1 mice, survival T/C
Test: NCI In Vivo Anticancer Drug Screen. Data for tumor model P388 Leukemia (intraperitoneal) in CD2F1 (CDF1) mice
Settings: endpoint: median survival time, higher = longer survival
Procedure, shortened: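 Mice carrying the transplanted tumor received test compound or vehicle. Survival was recorded in each group, and the value is the treated-group measurement divided by that of the vehicle-treated control group.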

[1] = dose: 25.0 mg/kg/injection, schedule: Q01DX009 (ip), vehicle: Klucel (hydroxypropylcellulose) (HPC)
[2] = dose: 100.0 mg/kg/injection, schedule: Q01DX009 (ip), vehicle: Klucel (hydroxypropylcellulose) (HPC)
[3] = dose: 50.0 mg/kg/injection, schedule: Q01DX005 (ip), vehicle: Klucel (hydroxypropylcellulose) (HPC)
[4] = dose: 100.0 mg/kg/injection, schedule: Q01DX005 (ip), vehicle: Klucel (hydroxypropylcellulose) (HPC)

O=[N+]([O-])c1ccc(Cl)nc1Sc1ncccn1
T/C (dose: 6.25 mg/kg/injection, schedule: Q01DX009 (ip), vehicle: Klucel (hydroxypropylcellulose) (HPC)): 96 % of control
T/C (dose: 12.5 mg/kg/injection, schedule: Q01DX009 (ip), vehicle: Klucel (hydroxypropylcellulose) (HPC)): 91 % of control
T/C [1]: 104 % of control
T/C [2]: 95 % of control

Cc1ccc(S(=O)(=O)OC2CN(C)CC=C2c2ccccc2)cc1 (stereo not given)
T/C (dose: 12.5 mg/kg/injection, schedule: Q01DX005 (ip), vehicle: Klucel (hydroxypropylcellulose) (HPC)): 105 % of control
T/C (dose: 25.0 mg/kg/injection, schedule: Q01DX005 (ip), vehicle: Klucel (hydroxypropylcellulose) (HPC)): 104 % of control
T/C [3]: 99 % of control
T/C [4]: 99 % of control

c1cc[n+](Cc2ccc3ccccc3c2)c(C2OCCO2)c1
T/C (dose: 5.0 mg/kg/injection, schedule: Q01DX009 (ip), vehicle: saline): 100 % of control
T/C (dose: 10.0 mg/kg/injection, schedule: Q01DX009 (ip), vehicle: saline): 100 % of control
T/C (dose: 20.0 mg/kg/injection, schedule: Q01DX009 (ip), vehicle: saline): 104 % of control

CCOC(=O)C(Cc1ccc(N(CCCl)CCCl)cc1)NC(=O)C(CCC(=O)O)NC(=O)C(Cc1ccc(O)cc1)NC(=O)C(CCCC(=O)O)NC(=O)C(N)Cc1ccc(O)cc1 (stereo not given) (H-Y[Aad]YE[ξPhe(4-N(CH2CH2Cl)2)]-OEt; configuration not given here)
T/C [1]: 162 % of control
T/C (dose: 50.0 mg/kg/injection, schedule: Q01DX009 (ip), vehicle: Klucel (hydroxypropylcellulose) (HPC)): 173 % of control and 186 % of control
T/C [2]: 189 % of control and 230 % of control
T/C (dose: 200.0 mg/kg/injection, schedule: Q01DX009 (ip), vehicle: Klucel (hydroxypropylcellulose) (HPC)): 218 % of control and 220 % of control

O=C(O)CC(CC(=O)N(CCP(c1ccccc1)c1ccccc1)CCP(c1ccccc1)c1ccccc1)C(=O)O (stereo not given) (tested in a mixture with another compound)
T/C (dose: 50.0 mg/kg/injection, schedule: Q01DX009 (ip), vehicle: saline): 111 % of control
T/C (dose: 100.0 mg/kg/injection, schedule: Q01DX009 (ip), vehicle: saline): 111 % of control
T/C (dose: 100.0 mg/kg/injection, schedule: Q04DX003 (ip), vehicle: Klucel (hydroxypropylcellulose) (HPC)): 99 % of control
T/C (dose: 200.0 mg/kg/injection, schedule: Q01DX009 (ip), vehicle: saline): 112 % of control
T/C (dose: 200.0 mg/kg/injection, schedule: Q04DX003 (ip), vehicle: Klucel (hydroxypropylcellulose) (HPC)): 101 % of control
T/C (dose: 400.0 mg/kg/injection, schedule: Q04DX003 (ip), vehicle: Klucel (hydroxypropylcellulose) (HPC)): 97 % of control

C=C(C(=O)O)S(=O)(=O)O
T/C (dose: 7.5 mg/kg/injection, schedule: Q01DX009 (ip), vehicle: saline with Tween-80): 102 % of control
T/C (dose: 15.0 mg/kg/injection, schedule: Q01DX009 (ip), vehicle: saline with Tween-80): 110 % of control
T/C (dose: 30.0 mg/kg/injection, schedule: Q01DX009 (ip), vehicle: saline with Tween-80): 114 % of control

CC(=O)N1C=CN(C(C)=O)C1c1c[nH]c2ccccc12
T/C [3]: 98 % of control
T/C [4]: 104 % of control
T/C (dose: 200.0 mg/kg/injection, schedule: Q01DX005 (ip), vehicle: Klucel (hydroxypropylcellulose) (HPC)): 99 % of control

CCCCCC(=O)Cc1cc(OC)cc(O)c1C(=O)Oc1cc(CCCCC)c(C(=O)O)c(OC)c1
T/C (dose: 0.25 mg/kg/injection, schedule: Q01DX009 (ip), vehicle: saline with Tween-80): 101 % of control
T/C (dose: 0.5 mg/kg/injection, schedule: Q01DX009 (ip), vehicle: saline with Tween-80): 104 % of control
T/C (dose: 1.0 mg/kg/injection, schedule: Q01DX009 (ip), vehicle: saline with Tween-80): 108 % of control
